± gives the expanded uncertainty stated by the source.
Experiment: activity coefficient (dimensionless); of the first substance listed, at infinite dilution; xn = mol fraction of the nth substance listed
Details: 101 kPa, Liquid, Chromatography, x1 = 0

| Compound | activity coefficient (318.15 K) | activity coefficient (328.15 K) | activity coefficient (338.15 K) | activity coefficient (348.15 K) | activity coefficient (358.15 K) | activity coefficient (368.15 K) |
| --- | --- | --- | --- | --- | --- | --- |
| CCOC(C)(C)C [2-ethoxy-2-methylpropane] + CCCC[N+]1(C)CCOCC1.N#C[C-](C#N)C#N | 16.8 ± 1.1 | 16.2 ± 1.1 | 15.6 ± 1.1 | 15.3 ± 1 | 14.9 ± 1 | 14.6 ± 1 |
| CCC(=O)CC [pentan-3-one] + CCCC[N+]1(C)CCOCC1.N#C[C-](C#N)C#N | 1.42 ± 0.09 | 1.44 ± 0.09 | 1.47 ± 0.1 | 1.49 ± 0.1 | 1.51 ± 0.1 | 1.54 ± 0.1 |
| C1CCOC1 [tetrahydrofuran] + CCCC[N+]1(C)CCOCC1.N#C[C-](C#N)C#N | 1.12 ± 0.07 | 1.15 ± 0.07 | 1.17 ± 0.07 | 1.18 ± 0.08 | 1.21 ± 0.08 | 1.22 ± 0.08 |
| CCC(C)CC [3-methylpentane] + CCCC[N+]1(C)CCOCC1.N#C[C-](C#N)C#N | 51.3 ± 3.5 | 46 ± 3.1 | 42.3 ± 2.9 | 38.9 ± 2.7 | 36.3 ± 2.5 | 33.5 ± 2.3 |
| COC(C)=O [methyl ethanoate] + CCCC[N+]1(C)CCOCC1.N#C[C-](C#N)C#N | 1.2 ± 0.08 | 1.23 ± 0.08 | 1.24 ± 0.08 | 1.26 ± 0.08 | 1.29 ± 0.08 | 1.3 ± 0.08 |
| C1CCCCC1 [cyclohexane] + CCCC[N+]1(C)CCOCC1.N#C[C-](C#N)C#N | 22.6 ± 1.5 | 20.8 ± 1.4 | 19.3 ± 1.3 | 18 ± 1.2 | 16.9 ± 1.2 | 16 ± 1.1 |
| CCc1ccccc1 [ethylbenzene] + CCCC[N+]1(C)CCOCC1.N#C[C-](C#N)C#N | 3.74 ± 0.25 | 3.74 ± 0.25 | 3.75 ± 0.26 | 3.75 ± 0.26 | 3.75 ± 0.26 | 3.75 ± 0.26 |
| c1ccsc1 [thiophene] + CCCC[N+]1(C)CCOCC1.N#C[C-](C#N)C#N | 1.01 ± 0.06 | 1.04 ± 0.07 | 1.06 ± 0.07 | 1.08 ± 0.07 | 1.1 ± 0.07 | 1.12 ± 0.07 |
| CCC(=O)OC [methyl propanoate] + CCCC[N+]1(C)CCOCC1.N#C[C-](C#N)C#N | 1.64 ± 0.11 | 1.67 ± 0.11 | 1.7 ± 0.11 | 1.73 ± 0.12 | 1.76 ± 0.12 | 1.79 ± 0.12 |
| C1CCCCCC1 [cycloheptane] + CCCC[N+]1(C)CCOCC1.N#C[C-](C#N)C#N | 28.1 ± 1.9 | 26 ± 1.8 | 24 ± 1.6 | 22.5 ± 1.5 | 21 ± 1.4 | 19.7 ± 1.3 |
| CC(C)=O [acetone] + CCCC[N+]1(C)CCOCC1.N#C[C-](C#N)C#N | 0.741 ± 0.049 | 0.75 ± 0.049 | 0.765 ± 0.05 | 0.774 ± 0.051 | 0.791 ± 0.051 | 0.798 ± 0.052 |
| CCCCCCCCCC [decane] + CCCC[N+]1(C)CCOCC1.N#C[C-](C#N)C#N | 289 ± 20 | 251 ± 17 | 224 ± 15 | 202 ± 14 | 183 ± 13 | 166 ± 11 |
| C1CCCCCCC1 [cyclooctane] + CCCC[N+]1(C)CCOCC1.N#C[C-](C#N)C#N | 37 ± 2.5 | 34.1 ± 2.3 | 31.2 ± 2.1 | 29.1 ± 2 | 27 ± 1.8 | 25.1 ± 1.7 |
| CCCCCCCC [octane] + CCCC[N+]1(C)CCOCC1.N#C[C-](C#N)C#N | 125 ± 9 | 113 ± 8 | 102 ± 7 | 93.4 ± 6.4 | 86.5 ± 5.9 | 78.6 ± 5.4 |
| C1COCCO1 [1,4-dioxane] + CCCC[N+]1(C)CCOCC1.N#C[C-](C#N)C#N | 0.707 ± 0.047 | 0.74 ± 0.049 | 0.772 ± 0.05 | 0.798 ± 0.052 | 0.831 ± 0.054 | 0.853 ± 0.055 |
| CC(C)(C)O [2-methylpropan-2-ol] + CCCC[N+]1(C)CCOCC1.N#C[C-](C#N)C#N | 2 ± 0.14 | 1.88 ± 0.13 | 1.77 ± 0.12 | 1.69 ± 0.11 | 1.63 ± 0.11 | 1.58 ± 0.1 |
| O [water] + CCCC[N+]1(C)CCOCC1.N#C[C-](C#N)C#N | 1.03 ± 0.06 | 0.971 ± 0.061 | 0.916 ± 0.058 | 0.86 ± 0.055 | 0.819 ± 0.053 | 0.78 ± 0.051 |

| Compound | activity coefficient (318.15 K) | activity coefficient (328.15 K) | activity coefficient (338.15 K) | activity coefficient (348.15 K) | activity coefficient (358.15 K) | activity coefficient (368.15 K) |
| --- | --- | --- | --- | --- | --- | --- |
| COC(C)(C)C [2-methoxy-2-methylpropane] + CCCC[N+]1(C)CCOCC1.N#C[C-](C#N)C#N | 5.74 ± 0.39 | 5.77 ± 0.39 | 5.74 ± 0.39 | 5.76 ± 0.39 | 5.77 ± 0.39 | 5.78 ± 0.39 |
| C=CCCCC [hex-1-ene] + CCCC[N+]1(C)CCOCC1.N#C[C-](C#N)C#N | 22.6 ± 1.5 | 21.3 ± 1.5 | 20 ± 1.4 | 19.1 ± 1.3 | 18.2 ± 1.2 | 17.4 ± 1.2 |
| c1ccccc1 [benzene] + CCCC[N+]1(C)CCOCC1.N#C[C-](C#N)C#N | 1.53 ± 0.1 | 1.55 ± 0.1 | 1.57 ± 0.1 | 1.58 ± 0.1 | 1.61 ± 0.11 | 1.62 ± 0.11 |
| c1ccncc1 [pyridine] + CCCC[N+]1(C)CCOCC1.N#C[C-](C#N)C#N | 0.733 ± 0.049 | 0.748 ± 0.049 | 0.758 ± 0.05 | 0.766 ± 0.05 | 0.766 ± 0.05 | 0.788 ± 0.051 |
| CC(C)OC(C)C [diisopropyl ether] + CCCC[N+]1(C)CCOCC1.N#C[C-](C#N)C#N | 17.8 ± 1.2 | 17.4 ± 1.2 | 16.8 ± 1.1 | 16.5 ± 1.1 | 16 ± 1.1 | 15.6 ± 1.1 |
| C1CCCC1 [cyclopentane] + CCCC[N+]1(C)CCOCC1.N#C[C-](C#N)C#N | 14.7 ± 1 | 13.7 ± 0.9 | 12.8 ± 0.9 | 12.1 ± 0.8 | 11.4 ± 0.8 | 10.9 ± 0.7 |
| C#CCCC [1-pentyne] + CCCC[N+]1(C)CCOCC1.N#C[C-](C#N)C#N | 3.69 ± 0.25 | 3.73 ± 0.25 | 3.75 ± 0.26 | 3.8 ± 0.26 | 3.81 ± 0.26 | 3.83 ± 0.26 |
| C=C(C)c1ccccc1 [(1-methylethenyl)benzene] + CCCC[N+]1(C)CCOCC1.N#C[C-](C#N)C#N | 2.8 ± 0.19 | 2.89 ± 0.2 | 2.99 ± 0.2 | 3.07 ± 0.21 | 3.15 ± 0.21 | 3.22 ± 0.22 |
| CCCCCCC [heptane] + CCCC[N+]1(C)CCOCC1.N#C[C-](C#N)C#N | 84 ± 5.8 | 76.8 ± 5.3 | 69.6 ± 4.8 | 63.3 ± 4.3 | 58.7 ± 4 | 53.7 ± 3.7 |
| C#CCCCC [1-hexyne] + CCCC[N+]1(C)CCOCC1.N#C[C-](C#N)C#N | 5.47 ± 0.37 | 5.5 ± 0.37 | 5.5 ± 0.37 | 5.54 ± 0.38 | 5.53 ± 0.38 | 5.51 ± 0.38 |
| Cc1ccccc1 [toluene] + CCCC[N+]1(C)CCOCC1.N#C[C-](C#N)C#N | 2.3 ± 0.16 | 2.33 ± 0.16 | 2.36 ± 0.16 | 2.38 ± 0.16 | 2.41 ± 0.16 | 2.43 ± 0.17 |
| CCC[N+](=O)[O-] [1-nitropropane] + CCCC[N+]1(C)CCOCC1.N#C[C-](C#N)C#N | 0.982 ± 0.062 | 0.99 ± 0.062 | 0.998 ± 0.062 | 1 ± 0.06 | 1.01 ± 0.06 | 1.01 ± 0.06 |
| CCCC(C)=O [pentan-2-one] + CCCC[N+]1(C)CCOCC1.N#C[C-](C#N)C#N | 1.44 ± 0.09 | 1.47 ± 0.1 | 1.49 ± 0.1 | 1.5 ± 0.1 | 1.53 ± 0.1 | 1.54 ± 0.1 |
| CO [methanol] + CCCC[N+]1(C)CCOCC1.N#C[C-](C#N)C#N | 0.825 ± 0.053 | 0.79 ± 0.051 | 0.762 ± 0.05 | 0.729 ± 0.048 | 0.704 ± 0.047 | 0.677 ± 0.046 |
| CC1CCCCC1 [methylcyclohexane] + CCCC[N+]1(C)CCOCC1.N#C[C-](C#N)C#N | 35.2 ± 2.4 | 32.3 ± 2.2 | 29.7 ± 2 | 27.6 ± 1.9 | 25.7 ± 1.8 | 24 ± 1.6 |
| CCC(C)(C)OC [2-methoxy-2-methylbutane] + CCCC[N+]1(C)CCOCC1.N#C[C-](C#N)C#N | 8.61 ± 0.59 | 8.52 ± 0.58 | 8.42 ± 0.57 | 8.37 ± 0.57 | 8.29 ± 0.57 | 8.21 ± 0.56 |
| Cc1ccccc1C [1,2-dimethylbenzene] + CCCC[N+]1(C)CCOCC1.N#C[C-](C#N)C#N | 2.96 ± 0.2 | 2.99 ± 0.2 | 3.02 ± 0.21 | 3.04 ± 0.21 | 3.07 ± 0.21 | 3.08 ± 0.21 |
